Reference: patent publication US6380161B1, “Compositions for treating chemotherapy-resistant tumor cells and targeted chemotherapy compositions” (priority 1999, dated 2002)
“Also recorded” adds a separate entry of the source. Like-named read-outs stand apart in the source and are kept apart here. Residues, ends and D or L forms follow the SMILES beside them. No end group written: not given here. *: point of attachment. X1 = COc1cccc2c1C(=O)c1c(O)c3c(c(O)c1C2=O)CC(O)(C(=O)CO)C[C@@H]3O[C@H]1C[C@H](N*)[C@H](O)[C@H](C)O1; Acm = CC(=O)NC*

Assays:
[1] = test system: Melanoma tumor cells; experiment: Melanoma tumor development (lung tumor colonies) in mice; type: in vivo; conditions: intraperitoneally 24 and 96 hours after tumor implantation, 18 μM/kg, versus buffer
Procedure: This experiment was designed to evaluate whether the conjugation of the peptide to doxorubicin altered its ability to prevent wild-type, nonresistant tumor development in mice. Melanoma tumor cells were injected into mice. The animals (5 in each group) were treated intraperitoneally 24 and 96 hours after tumor implantation with either buffer alone, Dox-P, the Cys(Acm)-Ser-Val-Thr-Cys(Acm)-Gly (SEQ ID NO: 6) peptide, or Dox, at a concentration of 18 μM/kg. The mice were sacrificed and the melanoma tumor colonies on the lung were counted. […] Additionally, the tumor colonies in the Dox-P and the Dox groups were 2-5 fold smaller than in the buffer group.

[2] = test system: B16-F10 Melanoma; experiment: In vitro LD50 from dose response curves (ALAMAR BLUE cell viability); type: cell-based; conditions: dose at which half of the cells die
[3] = test system: Human Breast Carcinoma; experiment: as above; type: cell-based; conditions: dose at which half of the cells die
[4] = test system: Lewis Lung Carcinoma; experiment: as above; type: cell-based; conditions: dose at which half of the cells die
[5] = test system: Wild-type CHO Cells; experiment: Cell viability / in vitro LD50 on wild-type CHO cells (ALAMAR BLUE); type: cell-based
Procedure: (§1) Doxorubicin and multidrug-resistant CHO cells were cultured using standard tissue culture conditions: 37° C., DMEM media, serum free conditions, with 5% CO2 for pH adjustment. The cells were treated for 24 hours with either doxorubicin or Dox-P, the peptide conjugate prepared in Example 1, at concentrations of 0.25, 0.5, 0.75, and 1.0 mM. Untreated cells were used as a negative control.
Cell viability was measured using the ALAMAR BLUE™ assay (available from Biosource International, Camarillo, Calif.). The assay quantitatively measures the proliferation of cell lines and can establish the relative cytotoxicity of chemical agents. The assay incorporates a fluorometric/colorimetric growth indicator based on detection of metabolic activity. The system incorporates an oxidation-reduction (redox) indicator that both fluoresces and changes color in response to chemical reduction of growth medium resulting from cell growth. This causes the redox indicator to change from its oxidized, non-fluorescent, blue form to its reduced, fluorescent, red form. Data can be collected using either fluorescence-based instrumentation (530-560 nm excitation wavelength and 590 nm emission wavelength) or absorbance-based instrumentation (570 nm and 600 nm). […]
The LD50, the dose at which half of the cells die, was calculated from Dox and Dox-P dose response curves for five different cell lines, as shown in Table 1.

[6] = test system: Doxorubicin and multidrug-resistant CHO Cells; experiment: Cell viability / in vitro LD50 on drug-resistant CHO cells (ALAMAR BLUE); type: cell-based; conditions: 24 hours, 0.25, 0.5, 0.75 and 1.0 mM
Procedure: as §1
Cell viability was measured using the ALAMAR BLUE™ assay (available from Biosource International, Camarillo, Calif.). The assay quantitatively measures the proliferation of cell lines and can establish the relative cytotoxicity of chemical agents. The assay incorporates a fluorometric/colorimetric growth indicator based on detection of metabolic activity. The system incorporates an oxidation-reduction (redox) indicator that both fluoresces and changes color in response to chemical reduction of growth medium resulting from cell growth. This causes the redox indicator to change from its oxidized, non-fluorescent, blue form to its reduced, fluorescent, red form. Data can be collected using either fluorescence-based instrumentation (530-560 nm excitation wavelength and 590 nm emission wavelength) or absorbance-based instrumentation (570 nm and 600 nm).

[7] = test system: B16-F10 melanoma cells; experiment: Adhesion of B16-F10 melanoma cells to coated wells; type: cell-based; conditions: wells covered with 40 μg/ml
Procedure: An adhesion study was performed to evaluate the adhesion of B16-F10 melanoma cells (a nonresistant cell line) to doxorubicin and the doxorubicin-peptide conjugate of Example 1. In a 96 well plate, duplicate wells were covered with 40 μg/ml either TSP, Dox-P, the Cys(Acm)-Ser-Val-Thr-Cys(Acm)-Gly (SEQ ID NO: 6) peptide, Dox, the scrambled peptide Val-Cys-Thr-Gly-Ser-Cys (SEQ ID NO: 3), the Cys(Acm)Ser-Val-Thr-Cys-(Acm)-Gly (SEQ ID NO: 6) peptide with a d orientation, or 1% bovine serum albumin (BSA). The wells were dried out overnight and then blocked with BSA. 100 μl of a suspension containing 2×10^5 B16-F-10 melanoma cells were plated in the protein covered wells and incubated at 37° C. for 20 minutes to 1 hour. The non-adherent cells were removed and the wells were washed with a Hepes buffer. The adherent cells were fixed with 2.5% glutaraldehyde for 10 minutes and stained with 0.2% Giemsa. The stain was washed off and the cells were counted in a field of 1 mm square. Cells adhering to BSA were considered background.

[8] = test system: Doxorubicin and multidrug-resistant CHO Cells; experiment: Coadministration of peptides and doxorubicin on resistant CHO cells; type: cell-based; conditions: peptide coadministered with doxorubicin, not linked
Procedure: Doxorubicin and multidrug-resistant CHO cells were treated with a 7 coadministration of peptides and doxorubicin. In this example the peptides were not linked to the doxorubicin, but were only administered at the same time.

[9] = mice, 68 mg/kg (same number of doxorubicin molecules as Dox 30 mg/kg), 3 mice treated

Compound: COc1cccc2c1C(=O)c1c(O)c3c(c(O)c1C2=O)C[C@@](O)(C(=O)CO)C[C@@H]3O[C@H]1C[C@H](N)[C@H](O)[C@H](C)O1 [Dox, doxorubicin, reference compound]
- Melanoma tumor development (number of lung tumor colonies / lung metastasis) [1]: inhibit the development of lung metastasis; also recorded: effective at preventing tumor development
- Toxicity Results: survival (mice, 30 mg/kg, 3 mice treated): 3 mice died^1
- Toxicity Results: body weight change (mouse, in vivo, 30 mg/kg): significant weight loss
- In Vitro LD50 [2]: 0.30 mM
- In Vitro LD50 [3]: 1.0 mM
- In Vitro LD50 [4]: 0.20 mM
- In Vitro LD50 ([5]; Wild-type CHO Cells, dose at which half of the cells die): 1.0 mM
- Effect on drug-resistant CHO cell viability (dose response) [6]: negligible effect

Compound: COc1cccc2c1C(=O)c1c(O)c3c(c(O)c1C2=O)CC(O)(C(=O)CO)C[C@@H]3O[C@H]1C[C@H](NC(=O)CNC(=O)[C@H](CSCNC(C)=O)NC(=O)[C@@H](NC(=O)[C@@H](NC(=O)[C@H](CO)NC(=O)[C@H](CSCNC(C)=O)NC(C)=O)C(C)C)[C@@H](C)O)[C@H](O)[C@H](C)O1 (stereo partly drawn) [Dox-P] (Ac-C(Acm)SVTC(Acm)G-X1)
- Melanoma tumor development (number of lung tumor colonies / lung metastasis) [1]: inhibit the development of lung metastasis; also recorded: effective at preventing tumor development
- Toxicity Results: body weight change [9]: some small weight gain
- Toxicity Results: survival [9]: 3 mice lived
- Adhesion of B16-F10 melanoma cells [7]: does not destroy its adhesive activity
- Effect on wild-type CHO cell viability ([5]; 24 hours, 0.25-1.0 mM, compared with Dox alone): appears to function more effectively against wild-type CHO cells than Dox alone
- Effect on drug-resistant CHO cell viability (dose response) [6]: dramatic dose-response effect

Compound: ASVTAR
- Effect of peptide on doxorubicin toxicity of resistant CHO cells [8]: shows a dose-response effect

Compound: Cys(Acm)-Ser-Val-Thr-Cys(Acm)-Gly (C(Acm)SVTC(Acm)G) [thrombospondin-derived hexapeptide with cysteine sulfur protected by acetamidomethyl (Acm) groups]
- Melanoma tumor development (number of lung tumor colonies / lung metastasis) [1]: lower number of tumors than buffer alone
- Melanoma tumor development (number of lung tumor colonies / lung metastasis) ([1]; listed as peptide): inhibit the development of lung metastasis
- Effect of peptide on doxorubicin toxicity of resistant CHO cells [8]: did not show any effect
